Tests used:
[1] = test system: catalase; experiment: Storage stability of unpurified fermentation broth (remaining extracellular catalase activity); design: species or system Bacillus sp. WSHDZ-01
Experimental: (§1) Catalase activity was measured using the method described by Aebi (Aebi HE. Catalase in vitro. Method Enzymol 1984; 105:121-6). Total reaction volume is 3 ml. 0.1 ml enzyme solution was added to 2.9 ml KH2PO4—K2HPO4 buffer (pH 7.0, 10 mM KH2PO4/50 mM K2HPO4, 0.45 g/L H2O2). Decomposition rate of H2O2 was measured at 240 nm using a UV-Vis spectrophotometer. One unit of catalase activity is defined as the amount of enzyme that decomposes 1 μmol H2O2 per min at pH 7.0, 25° C.
The culturing of Bacillus sp. WSHDZ-01 was performed as described under control procedure with one modification, that is, 5 g/L sodium hexametaphosphate was added at 36 hours of fermentation.
After fermentation, unpurified fermentation broth was stored at 25° C. for 12 hours. […] The broth storage stability was improved by 28.3% under the procedure with sodium hexametaphosphate.

[2] = test system: Bacillus sp. WSHDZ-01; experiment: Fermentation of Bacillus sp. WSHDZ-01 with sodium hexametaphosphate added; extracellular catalase activity of the broth by catalase assay (Aebi); type: cell-based
Experimental: (§2) Fermentation Culture: the fermentation process was performed in a 3 liter (L) stirred fermenter (KFT-3L, Korea) with a working volume of 1.8 L. Above 12-h-old basic flask culture was added at a concentration of 5.0% (v/v) to 1.8 L fermentation medium, and incubated under a stepwise temperature control, in which the temperature was maintained at 37° C. for the first 10 hours, at 35° C. during 10-20 hours, and at 32° C. after 20 hours. The aeration rate was 1.0 (v/v/m) (volume of air per volume of culture per minute). The shaking speed was 400 rpm. The total fermentation period was 48 to 53 hours. Proteinase inhibitors can be added during this fermentation process as described below.
as §1
Bacillus sp. WSHDZ-01 with accession number CCTCC NO. M206062 was used to produce catalase. Bacillus sp. WSHDZ-01 grown on a slant culture was inoculated into 50 ml of liquid seed medium in a 250 ml culture flask and cultured at 37° C., 200 rpm for 12-14 hours. 6% above liquid seed culture (v/v) was added to 80 ml basic fermentation culture in a 500 ml culture flask, and incubate at 37° C., 200 rpm, for 36-40 hours.
as §2, with “the” for “Fermentation Culture: the”, “L” for “liter (L)”, “The” for “Above”, “hours.” for “hours. Proteinase inhibitors can be added during this fermentation process as described below.”

[3] = 1 g/L added at 30 hours of fermentation
[4] = 3 g/L added at 36 hours of fermentation
[5] = 5 g/L added at 36 hours of fermentation
[6] = 7 g/L added at 36 hours of fermentation
[7] = 10 g/L added at 40 hours of fermentation

In the case of `O=P1([O-])OP(=O)([O-])OP(=O)([O-])OP(=O)([O-])OP(=O)([O-])OP(=O)([O-])O1.[Na+].[Na+].[Na+].[Na+].[Na+].[Na+]` [sodium hexametaphosphate], the “percentage of remaining extracellular catalase activity of the stored fermentation broth” value ([1]; 5 g/L added at 36 hours of fermentation, unpurified broth stored at 25° C. for 12 hours) was 84.4%, the “broth storage stability improved” value ([1]; 5 g/L added at 36 hours, stored at 25° C. for 12 hours, versus control culture procedure (56.1%)) was 28.3% and the “Extracellular catalase activity of the fermentation broth” value [2, 3] was 15700 U/mL. The “increase of enzyme activity from that of the control procedure” value (from here on “increase of enzyme activity”) [2, 3] was 16.3%, the “Extracellular catalase activity of the fermentation broth” value [2, 4] was 18600 U/mL and the “increase of enzyme activity” value [2, 4] was 37.7%. The “Extracellular catalase activity of the fermentation broth” value [2, 5] was 19200 U/mL, the “increase of enzyme activity” value [2, 5] was 42.2% and the “Extracellular catalase activity of the fermentation broth” value [2, 6] was 19700 U/mL. For the same molecule, the “increase of enzyme activity” value [2, 6] was 45.9%, the “Extracellular catalase activity of the fermentation broth” value [2, 7] was 16900 U/mL and the “increase of enzyme activity” value [2, 7] was 25.2%.
